Data published in article PMC12155096 (International Journal of Molecular Sciences, 2025).

Each molecule was assayed against CYP3A4 (Homo sapiens, UniProt P08684) (assay: biochemical). Settings: CYP3A4 AC50 (half-maximal activity concentration); call rule not given here.
CYP3A4, sequence (P08684 whole entry): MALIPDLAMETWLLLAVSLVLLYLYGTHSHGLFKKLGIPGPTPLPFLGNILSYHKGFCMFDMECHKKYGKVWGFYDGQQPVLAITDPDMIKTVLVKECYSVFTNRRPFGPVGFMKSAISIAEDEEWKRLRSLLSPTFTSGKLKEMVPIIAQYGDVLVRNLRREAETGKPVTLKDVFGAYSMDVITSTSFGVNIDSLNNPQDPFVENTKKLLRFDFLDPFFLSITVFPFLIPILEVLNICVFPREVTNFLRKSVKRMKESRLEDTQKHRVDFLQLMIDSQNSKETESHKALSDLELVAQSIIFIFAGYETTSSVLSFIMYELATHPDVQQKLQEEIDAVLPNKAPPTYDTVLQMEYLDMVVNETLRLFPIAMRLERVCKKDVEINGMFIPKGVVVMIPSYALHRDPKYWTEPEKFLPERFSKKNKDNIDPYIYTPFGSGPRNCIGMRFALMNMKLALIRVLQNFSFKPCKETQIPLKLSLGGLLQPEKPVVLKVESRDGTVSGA
In the case of `C[Si](Cl)(c1ccccc1)c1ccccc1` [Chloro(methyl)diphenylsilane], the AC50 is reported as 23.4 µM.
With `CCOCCOC(=O)C=Cc1ccc(OC)cc1` [Cinoxate] the AC50 was 21.9 µM.
Work on `CCOC(=O)NC(C)(C)Cc1ccc(Cl)cc1` [Cloforex] yielded an AC50 of 14.6 µM.
Work on `O=C(c1ccccc1)C1CCCCC1` [Cyclohexylphenylketone] yielded an AC50 of 29.2 µM.
`COC(=O)C(C)Oc1ccc(Oc2ccc(Cl)cc2Cl)cc1` (centres unmarked) [Diclofop-methyl] was tested, and the AC50 was 12.8 µM.
In the case of `O=C(OCCOCCOC(=O)c1ccccc1)c1ccccc1` [Diethylene glycol dibenzoate], the AC50 is reported as 11.4 µM.
`CC(C)OC(=O)c1ccccc1C(=O)OC(C)C` [Diisopropyl phthalate] was tested, and the AC50 was 31.9 µM.
Molecule `COC(=O)CCCCCCCCC(=O)OC` [Dimethyl decanedioate] has an AC50 of 38.8 µM.
Molecule `O=[N+]([O-])c1cc(C2CCCCC2)c(O)c([N+](=O)[O-])c1` [Dinex] has an AC50 of 22.5 µM.
`CN(C)C(=O)C(c1ccccc1)c1ccccc1` [Diphenamid] was tested, and the AC50 was 31.2 µM.
In the case of `O=C(Oc1ccccc1)c1ccccc1C(=O)Oc1ccccc1` [Diphenyl phthalate], the AC50 is reported as 7.65 µM.
Molecule `CCCOC(=O)c1ccccc1C(=O)OCCC` [Dipropyl phthalate] has an AC50 of 9.91 µM.
`CCOC(=O)C1OC1(C)c1ccccc1` (centres unmarked) [Ethyl methylphenylglycidate] was tested, and the AC50 was 37.7 µM.
Molecule `CCOC(=O)C(C)Oc1ccc(Oc2nc3ccc(Cl)cc3o2)cc1` (centres unmarked) [Fenoxaprop-ethyl] has an AC50 of 28.4 µM.
Work on `N#Cc1c[nH]cc1-c1cccc2c1OC(F)(F)O2` [Fludioxonil] yielded an AC50 of 5.11 µM.
In the case of `CC(C)N(C(=O)COc1nnc(C(F)(F)F)s1)c1ccc(F)cc1` [Flufenacet], the AC50 is reported as 19.3 µM.

The molecules below were run against human CYP2D6 (Homo sapiens, UniProt P10635) (assay: not given). Settings: not given.
human CYP2D6, sequence (P10635 whole entry): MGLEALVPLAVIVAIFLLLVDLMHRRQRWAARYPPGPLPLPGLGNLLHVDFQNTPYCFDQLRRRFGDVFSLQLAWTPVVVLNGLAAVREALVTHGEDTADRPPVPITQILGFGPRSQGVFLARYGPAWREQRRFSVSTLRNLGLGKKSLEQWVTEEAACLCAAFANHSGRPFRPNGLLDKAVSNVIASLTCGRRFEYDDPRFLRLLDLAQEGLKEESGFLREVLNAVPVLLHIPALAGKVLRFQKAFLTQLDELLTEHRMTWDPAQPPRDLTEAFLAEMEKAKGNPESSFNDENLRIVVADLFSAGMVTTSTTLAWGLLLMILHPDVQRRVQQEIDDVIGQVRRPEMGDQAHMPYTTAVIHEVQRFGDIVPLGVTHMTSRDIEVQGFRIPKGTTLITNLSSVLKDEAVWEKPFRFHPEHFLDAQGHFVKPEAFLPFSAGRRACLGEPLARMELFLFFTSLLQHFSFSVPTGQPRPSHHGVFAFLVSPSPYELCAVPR
For `C[Si](Cl)(c1ccccc1)c1ccccc1` [Chloro(methyl)diphenylsilane], the “CYP2D6 AC50 (half-maximal activity concentration)” value (“CYP2D6 AC50” below) was “Inconclusive inhibitor”.
In the case of `CCOCCOC(=O)C=Cc1ccc(OC)cc1` [Cinoxate], the “CYP2D6 AC50” value is reported as “Inactive”.
For `CCOC(=O)NC(C)(C)Cc1ccc(Cl)cc1` [Cloforex], the “CYP2D6 AC50” value was “Inconclusive inhibitor”.
`O=C(c1ccccc1)C1CCCCC1` [Cyclohexylphenylketone] was tested, and the “CYP2D6 AC50” value was “Inactive”.
With `COC(=O)C(C)Oc1ccc(Oc2ccc(Cl)cc2Cl)cc1` (centres unmarked) [Diclofop-methyl] the “CYP2D6 AC50” value was “Inconclusive”.
With `O=C(OCCOCCOC(=O)c1ccccc1)c1ccccc1` [Diethylene glycol dibenzoate] the “CYP2D6 AC50” value was “Inactive”.
In the case of `CC(C)OC(=O)c1ccccc1C(=O)OC(C)C` [Diisopropyl phthalate], the “CYP2D6 AC50” value is reported as “Inconclusive inhibitor”.
`COC(=O)CCCCCCCCC(=O)OC` [Dimethyl decanedioate] was tested, and the “CYP2D6 AC50” value was “Inactive”.
In the case of `O=[N+]([O-])c1cc(C2CCCCC2)c(O)c([N+](=O)[O-])c1` [Dinex], the “CYP2D6 AC50” value is reported as “Inconclusive inhibitor”.
With `CN(C)C(=O)C(c1ccccc1)c1ccccc1` [Diphenamid] the “CYP2D6 AC50” value was “Inactive”.
In the case of `O=C(Oc1ccccc1)c1ccccc1C(=O)Oc1ccccc1` [Diphenyl phthalate], the “CYP2D6 AC50” value is reported as “Inactive”.
In the case of `CCCOC(=O)c1ccccc1C(=O)OCCC` [Dipropyl phthalate], the “CYP2D6 AC50” value is reported as “Inactive”.
For `CCOC(=O)C1OC1(C)c1ccccc1` (centres unmarked) [Ethyl methylphenylglycidate], the “CYP2D6 AC50” value was “Inconclusive inhibitor”.
In the case of `CCOC(=O)C(C)Oc1ccc(Oc2nc3ccc(Cl)cc3o2)cc1` (centres unmarked) [Fenoxaprop-ethyl], the “CYP2D6 AC50” value is reported as “Inconclusive inhibitor”.
`N#Cc1c[nH]cc1-c1cccc2c1OC(F)(F)O2` [Fludioxonil] was tested, and the “CYP2D6 AC50” value was “Inactive”.
`CC(C)N(C(=O)COc1nnc(C(F)(F)F)s1)c1ccc(F)cc1` [Flufenacet] was tested, and the “CYP2D6 AC50” value was “Inactive”.

What follows are molecules tested against human CYP2C19 (Homo sapiens, UniProt P33261) (assay: biochemical). Settings: CYP2C19 AC50 (half-maximal activity concentration).
human CYP2C19, sequence (P33261 whole entry): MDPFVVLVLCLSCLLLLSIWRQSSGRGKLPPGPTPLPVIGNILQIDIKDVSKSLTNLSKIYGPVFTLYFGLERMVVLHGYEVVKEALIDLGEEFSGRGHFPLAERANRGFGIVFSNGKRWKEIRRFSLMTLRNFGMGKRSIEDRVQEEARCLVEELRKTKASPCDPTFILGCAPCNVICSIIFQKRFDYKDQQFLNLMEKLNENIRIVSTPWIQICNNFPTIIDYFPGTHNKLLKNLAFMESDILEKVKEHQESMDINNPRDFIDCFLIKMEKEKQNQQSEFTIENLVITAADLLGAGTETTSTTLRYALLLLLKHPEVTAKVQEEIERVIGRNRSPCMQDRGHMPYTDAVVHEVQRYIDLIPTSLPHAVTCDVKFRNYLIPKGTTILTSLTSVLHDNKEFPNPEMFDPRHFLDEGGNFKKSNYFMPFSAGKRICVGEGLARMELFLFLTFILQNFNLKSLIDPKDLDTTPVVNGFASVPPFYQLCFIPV
`C[Si](Cl)(c1ccccc1)c1ccccc1` [Chloro(methyl)diphenylsilane] gave an AC50 of 2.26 µM.
`CCOCCOC(=O)C=Cc1ccc(OC)cc1` [Cinoxate] showed an AC50 of 29.2 µM.
Work on `CCOC(=O)NC(C)(C)Cc1ccc(Cl)cc1` [Cloforex] yielded an AC50 of 5.34 µM.
`O=C(c1ccccc1)C1CCCCC1` [Cyclohexylphenylketone] showed an AC50 of 44.9 µM.
`COC(=O)C(C)Oc1ccc(Oc2ccc(Cl)cc2Cl)cc1` (centres unmarked) [Diclofop-methyl] was tested, and the AC50 was 6.41 µM.
With `O=C(OCCOCCOC(=O)c1ccccc1)c1ccccc1` [Diethylene glycol dibenzoate] the AC50 was 34.1 µM.
For `CC(C)OC(=O)c1ccccc1C(=O)OC(C)C` [Diisopropyl phthalate], the AC50 was 53.2 µM.
`COC(=O)CCCCCCCCC(=O)OC` [Dimethyl decanedioate] gave an AC50 of 64.5 µM.
Molecule `O=[N+]([O-])c1cc(C2CCCCC2)c(O)c([N+](=O)[O-])c1` [Dinex] has an AC50 of 39.8 µM.
`CN(C)C(=O)C(c1ccccc1)c1ccccc1` [Diphenamid] showed an AC50 of 53.7 µM.
For `O=C(Oc1ccccc1)c1ccccc1C(=O)Oc1ccccc1` [Diphenyl phthalate], the AC50 was 14.2 µM.
Work on `CCCOC(=O)c1ccccc1C(=O)OCCC` [Dipropyl phthalate] yielded an AC50 of 7.01 µM.
`CCOC(=O)C1OC1(C)c1ccccc1` (centres unmarked) [Ethyl methylphenylglycidate] showed an AC50 of 45.4 µM.
`CCOC(=O)C(C)Oc1ccc(Oc2nc3ccc(Cl)cc3o2)cc1` (centres unmarked) [Fenoxaprop-ethyl] gave an AC50 of 53 µM.
`N#Cc1c[nH]cc1-c1cccc2c1OC(F)(F)O2` [Fludioxonil] was tested, and the AC50 was 5.3 µM.
`CC(C)N(C(=O)COc1nnc(C(F)(F)F)s1)c1ccc(F)cc1` [Flufenacet] gave an AC50 of 3.4 µM.

What follows are molecules tested against T1, human CYP1A2 (Homo sapiens, UniProt P05177) (assay: biochemical). Settings: CYP1A2 AC50 (half-maximal activity concentration).
T1 sequence (P05177 1-516): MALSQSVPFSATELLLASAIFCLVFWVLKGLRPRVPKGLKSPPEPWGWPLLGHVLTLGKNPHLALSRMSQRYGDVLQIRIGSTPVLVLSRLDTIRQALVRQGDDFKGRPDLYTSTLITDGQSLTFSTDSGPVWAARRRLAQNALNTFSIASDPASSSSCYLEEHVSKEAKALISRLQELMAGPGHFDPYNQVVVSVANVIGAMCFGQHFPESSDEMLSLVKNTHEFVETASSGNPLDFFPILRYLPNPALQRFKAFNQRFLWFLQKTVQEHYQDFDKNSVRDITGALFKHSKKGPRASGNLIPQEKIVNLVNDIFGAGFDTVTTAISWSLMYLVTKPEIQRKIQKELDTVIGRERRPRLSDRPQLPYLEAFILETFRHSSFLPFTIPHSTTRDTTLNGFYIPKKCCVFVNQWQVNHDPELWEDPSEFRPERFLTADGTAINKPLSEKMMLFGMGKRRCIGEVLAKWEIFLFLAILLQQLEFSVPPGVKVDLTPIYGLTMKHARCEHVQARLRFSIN
In the case of `C[Si](Cl)(c1ccccc1)c1ccccc1` [Chloro(methyl)diphenylsilane], the AC50 is reported as 32.2 µM.
Work on `CCOCCOC(=O)C=Cc1ccc(OC)cc1` [Cinoxate] yielded an AC50 of 7.48 µM.
`CCOC(=O)NC(C)(C)Cc1ccc(Cl)cc1` [Cloforex] showed an AC50 of 7.64 µM.
Work on `O=C(c1ccccc1)C1CCCCC1` [Cyclohexylphenylketone] yielded an AC50 of 37.4 µM.
Molecule `COC(=O)C(C)Oc1ccc(Oc2ccc(Cl)cc2Cl)cc1` (centres unmarked) [Diclofop-methyl] has an AC50 of 38.5 µM.
Molecule `O=C(OCCOCCOC(=O)c1ccccc1)c1ccccc1` [Diethylene glycol dibenzoate] has an AC50 of 8.29 µM.
Work on `CC(C)OC(=O)c1ccccc1C(=O)OC(C)C` [Diisopropyl phthalate] yielded an AC50 of 3.31 µM.
In the case of `COC(=O)CCCCCCCCC(=O)OC` [Dimethyl decanedioate], the AC50 is reported as 40.1 µM.
In the case of `O=[N+]([O-])c1cc(C2CCCCC2)c(O)c([N+](=O)[O-])c1` [Dinex], the AC50 is reported as 71.1 µM.
Molecule `CN(C)C(=O)C(c1ccccc1)c1ccccc1` [Diphenamid] has an AC50 of 50.2 µM.
`O=C(Oc1ccccc1)c1ccccc1C(=O)Oc1ccccc1` [Diphenyl phthalate] was tested, and the AC50 was 4.94 µM.
For `CCCOC(=O)c1ccccc1C(=O)OCCC` [Dipropyl phthalate], the AC50 was 2.38 µM.
`CCOC(=O)C1OC1(C)c1ccccc1` (centres unmarked) [Ethyl methylphenylglycidate] showed an AC50 of 34.6 µM.
In the case of `CCOC(=O)C(C)Oc1ccc(Oc2nc3ccc(Cl)cc3o2)cc1` (centres unmarked) [Fenoxaprop-ethyl], the AC50 is reported as 23.9 µM.
Work on `N#Cc1c[nH]cc1-c1cccc2c1OC(F)(F)O2` [Fludioxonil] yielded an AC50 of 1.53 µM.
Work on `CC(C)N(C(=O)COc1nnc(C(F)(F)F)s1)c1ccc(F)cc1` [Flufenacet] yielded an AC50 of 37 µM.

These molecules were tested against human CYP2C9 (Homo sapiens, UniProt P11712) (assay: biochemical). Settings: CYP2C9 AC50 (half-maximal activity concentration).
human CYP2C9, sequence (P11712 whole entry): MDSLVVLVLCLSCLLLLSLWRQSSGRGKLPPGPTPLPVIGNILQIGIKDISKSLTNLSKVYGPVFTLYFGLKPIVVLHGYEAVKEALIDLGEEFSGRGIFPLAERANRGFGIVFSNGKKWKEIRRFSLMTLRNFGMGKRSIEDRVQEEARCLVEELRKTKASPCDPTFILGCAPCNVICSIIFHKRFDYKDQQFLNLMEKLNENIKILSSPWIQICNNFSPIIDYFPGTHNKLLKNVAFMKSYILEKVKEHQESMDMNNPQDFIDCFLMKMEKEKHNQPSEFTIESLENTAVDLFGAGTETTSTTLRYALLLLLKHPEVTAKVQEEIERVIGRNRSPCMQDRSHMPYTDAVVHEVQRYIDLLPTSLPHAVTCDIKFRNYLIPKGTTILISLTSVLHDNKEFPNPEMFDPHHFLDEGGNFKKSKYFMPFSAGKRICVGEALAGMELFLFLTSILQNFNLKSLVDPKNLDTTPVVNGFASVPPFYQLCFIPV
`C[Si](Cl)(c1ccccc1)c1ccccc1` [Chloro(methyl)diphenylsilane] showed an AC50 of 3.53 µM.
For `CCOCCOC(=O)C=Cc1ccc(OC)cc1` [Cinoxate], the AC50 was 13.9 µM.
`CCOC(=O)NC(C)(C)Cc1ccc(Cl)cc1` [Cloforex] was tested, and the AC50 was 15.6 µM.
Work on `O=C(c1ccccc1)C1CCCCC1` [Cyclohexylphenylketone] yielded an AC50 of 47.5 µM.
`COC(=O)C(C)Oc1ccc(Oc2ccc(Cl)cc2Cl)cc1` (centres unmarked) [Diclofop-methyl] showed an AC50 of 27.5 µM.
With `O=C(OCCOCCOC(=O)c1ccccc1)c1ccccc1` [Diethylene glycol dibenzoate] the AC50 was 12.7 µM.
With `CC(C)OC(=O)c1ccccc1C(=O)OC(C)C` [Diisopropyl phthalate] the AC50 was 50.4 µM.
For `COC(=O)CCCCCCCCC(=O)OC` [Dimethyl decanedioate], the AC50 was 50.5 µM.
Molecule `O=[N+]([O-])c1cc(C2CCCCC2)c(O)c([N+](=O)[O-])c1` [Dinex] has an AC50 of 8.27 µM.
`CN(C)C(=O)C(c1ccccc1)c1ccccc1` [Diphenamid] gave an AC50 of 38.4 µM.
With `O=C(Oc1ccccc1)c1ccccc1C(=O)Oc1ccccc1` [Diphenyl phthalate] the AC50 was 13.7 µM.
With `CCCOC(=O)c1ccccc1C(=O)OCCC` [Dipropyl phthalate] the AC50 was 30 µM.
For `CCOC(=O)C1OC1(C)c1ccccc1` (centres unmarked) [Ethyl methylphenylglycidate], the AC50 was 61.4 µM.
`CCOC(=O)C(C)Oc1ccc(Oc2nc3ccc(Cl)cc3o2)cc1` (centres unmarked) [Fenoxaprop-ethyl] gave an AC50 of 44 µM.
Molecule `N#Cc1c[nH]cc1-c1cccc2c1OC(F)(F)O2` [Fludioxonil] has an AC50 of 18.6 µM.
Work on `CC(C)N(C(=O)COc1nnc(C(F)(F)F)s1)c1ccc(F)cc1` [Flufenacet] yielded an AC50 of 35.6 µM.
